These results are taken from paper PMC4006873 (Biochemistry, 2013).

The structures appear in SMILES notation. pKd: −log10 of the molar value. Peptide text beside a SMILES is read from it. * marks the point of attachment. X1 = C[C@@H]1C[C@H]2[C@@H]3CCC4=CC(=O)C=C[C@]4(C)[C@@]3(F)[C@@H](O)C[C@]2(C)[C@@]1(O)C(=O)CSCCC(=O)*

Experiment [1] deals with T1, GR★-GFP (Homo sapiens, UniProt P04150, C638G).
T1 sequence (P04150 1-777 C638G): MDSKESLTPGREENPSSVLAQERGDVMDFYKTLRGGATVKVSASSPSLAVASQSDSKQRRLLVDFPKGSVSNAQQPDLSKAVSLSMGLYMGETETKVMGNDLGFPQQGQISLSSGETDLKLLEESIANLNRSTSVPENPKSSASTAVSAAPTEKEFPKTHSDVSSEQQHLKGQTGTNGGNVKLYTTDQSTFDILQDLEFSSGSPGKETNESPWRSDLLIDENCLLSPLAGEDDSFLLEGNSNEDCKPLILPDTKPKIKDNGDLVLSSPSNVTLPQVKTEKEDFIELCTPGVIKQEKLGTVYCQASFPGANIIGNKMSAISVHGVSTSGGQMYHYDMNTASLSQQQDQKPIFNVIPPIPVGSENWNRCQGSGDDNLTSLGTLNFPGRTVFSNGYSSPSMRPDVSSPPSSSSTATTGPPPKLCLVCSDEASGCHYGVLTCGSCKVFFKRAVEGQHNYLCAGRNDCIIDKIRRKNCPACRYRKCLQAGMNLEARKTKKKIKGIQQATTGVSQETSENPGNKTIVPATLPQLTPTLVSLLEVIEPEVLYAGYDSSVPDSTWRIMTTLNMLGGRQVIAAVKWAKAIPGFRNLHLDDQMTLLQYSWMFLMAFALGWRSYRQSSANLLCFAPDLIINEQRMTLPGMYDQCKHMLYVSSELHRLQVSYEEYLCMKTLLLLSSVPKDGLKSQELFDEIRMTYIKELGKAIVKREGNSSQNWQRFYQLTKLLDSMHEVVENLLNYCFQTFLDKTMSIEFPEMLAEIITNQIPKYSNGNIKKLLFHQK
Kind of experiment: GIGT nuclear translocation, transiently transfected cells expressing GR★-GFP. Format: cell-based. The note with it: HeLa cells expressing GR★-GFP, 500 nM, 30 min.

Experiment [2] concerns the target T1, GR★-GFP. Kind of experiment: High-content imaging of GIGT in stably transfected Saos-2. Format: cell-based. To be noted: Saos-2(GIGT) cells, 30 min; for Z′-factor of GIGT assay: 1 μM vs untreated.
A further experiment has as its target T2, Gal4-GR★-VP16 (Homo sapiens, UniProt P04150, C638G).
T2 sequence (P04150 524-758 C638G): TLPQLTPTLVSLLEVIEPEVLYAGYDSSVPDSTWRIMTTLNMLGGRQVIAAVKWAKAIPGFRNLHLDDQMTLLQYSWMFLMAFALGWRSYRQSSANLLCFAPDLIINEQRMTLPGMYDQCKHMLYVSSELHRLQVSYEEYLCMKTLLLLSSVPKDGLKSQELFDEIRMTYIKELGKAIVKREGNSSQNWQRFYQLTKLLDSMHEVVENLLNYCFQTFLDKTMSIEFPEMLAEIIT
Kind of experiment: GIGI in cell lysates, stably transfected U2OS. The note with it: U2OS(GIGI) cells; for Z′-factor of GIGI assay: 1 μM vs untreated, 24 h, n = 150.

A further experiment deals with rat C656G GR. To be noted: read-out: equilibrium dissociation constant (Kd), in vitro; cited from earlier work.

As for `CC[C@H](C)[C@H](NC(=O)[C@H](CC(C)C)NC(=O)[C@H](CC(=O)O)NC(=O)[C@H](CCCNC(=N)N)NC(=O)[C@@H](NC(=O)[C@@H]1CCCN1C(=O)[C@H](C)NC(=O)[C@H](CC(=O)O)NC(=O)[C@H](CC(=O)O)NC(=O)CNC(=O)[C@@H]1CCCN1C(=O)[C@H](Cc1ccc(O)cc1)NC(=O)[C@@H](NC(=O)[C@@H]1CCCN1C(=O)[C@H](CCC(N)=O)NC(=O)[C@H](CO)NC(=O)[C@@H]1CCCN1C(=O)CN)[C@@H](C)O)C(C)C)C(=O)N[C@@H](CCCNC(=N)N)C(=O)N[C@@H](Cc1ccccc1)C(=O)N[C@@H](Cc1ccc(O)cc1)C(=O)N[C@@H](CCCNC(=N)N)C(=O)N[C@@H](CC(=O)O)C(=O)N[C@@H](CC(C)C)C(=O)N[C@@H](CCCNC(=N)N)C(=O)N[C@@H](CCCNC(=N)N)C(=O)N[C@@H](Cc1ccc(O)cc1)C(=O)N[C@@H](CC(C)C)C(=O)N[C@@H](CC(N)=O)C(=O)N[C@H](C(=O)N[C@H](C(=O)N[C@H](C(=O)N[C@@H](CCCNC(=N)N)C(=O)N[C@@H](Cc1c[nH]cn1)C(=O)N[C@@H](CCCNC(=N)N)C(=O)N[C@@H](Cc1ccc(O)cc1)C(=O)N[C@@H](CCCCNC(=O)CCSCC(=O)[C@@]1(O)[C@H](C)C[C@H]2[C@@H]3CCC4=CC(=O)C=C[C@]4(C)[C@@]3(F)[C@@H](O)C[C@@]21C)C(N)=O)[C@@H](C)O)C(C)C)C(C)C` [5.3^Dex] (H-GPSQPTYPGDDAPVRDLIRFYRDLRRYLNVVTRHRYK(X1)-NH2; N-terminus and C-terminus assumed), the “translocation ratio (TR)” value at GR★-GFP [1] is reported as 2.79 ± 0.39; on GR★-GFP [2] (1 μM), 4.01 ± 0.30. Moreover, the “Z′-factor of GIGT assay” value at GR★-GFP [2] was 0.54. In addition, the “eGFP expression after treatment and cell lysis” value at Gal4-GR★-VP16 (1 μM) is reported as “significant eGFP expression”. Also, the “Z′-factor of GIGI assay” value at Gal4-GR★-VP16 is 0.56.
For `C[C@@H]1C[C@H]2[C@@H]3CCC4=CC(=O)C=C[C@]4(C)[C@@]3(F)[C@@H](O)C[C@]2(C)[C@@]1(O)C(=O)CO` [Dex, dexamethasone], the negative logarithm of the Kd (pKd) (usually the Kd on a negative log10 scale, so that one unit is a factor of ten) on rat C656G GR was 9.26.
For `CC(C)C[C@H](NC(=O)[C@H](Cc1c[nH]cn1)NC(=O)[C@H](CCCNC(=N)N)NC(=O)[C@H](CO)NC(=O)[C@H](CC(C)C)NC(=O)[C@@H](NC(=O)[C@H](Cc1ccccc1)NC(=O)[C@H](C)NC(=O)[C@H](CCCCN)NC(=O)CNC(=O)[C@H](CS)NC(=O)[C@@H](NC(=O)[C@H](CC(N)=O)NC(=O)[C@H](CS)NC(=O)[C@H](CO)NC(=O)[C@H](Cc1ccc(O)cc1)NC(=O)[C@@H](N)Cc1c[nH]c2ccccc12)C(C)C)C(C)C)C(=O)N[C@@H](CC(N)=O)C(=O)N[C@@H](CCCNC(=N)N)C(=O)N[C@@H](Cc1c[nH]cn1)C(=O)N[C@@H](CC(C)C)C(=O)N[C@@H](CCCNC(=N)N)C(=O)N[C@H](C(=O)N[C@@H](Cc1c[nH]cn1)C(=O)N[C@@H](CCCNC(=N)N)C(=O)N[C@@H](CCCNC(=N)N)C(=O)N[C@@H](C)C(=O)N[C@H](C(=O)N[C@@H](CCCCNC(=O)CCSCC(=O)[C@@]1(O)[C@H](C)C[C@H]2[C@@H]3CCC4=CC(=O)C=C[C@]4(C)[C@@]3(F)[C@@H](O)C[C@@]21C)C(N)=O)[C@@H](C)O)C(C)C` [ZF5.3^Dex] (H-WYSCNVCGKAFVLSRHLNRHLRVHRRATK(X1)-NH2; N-terminus and C-terminus assumed), the “Z′-factor of GIGT assay” value at GR★-GFP [2] came out at 0.56. Besides, the “Z′-factor of GIGI assay” value at Gal4-GR★-VP16 is 0.42.
